From patent US7012042B1, “Methods and products to protect against root intrusion and plant and root growth” (Growguard, LLC, Inc., priority 2002, dated 2006)

How the values were obtained:
plant root = conditions: cited from earlier work
[1] = Solubility of Trifluralin in methacrylate plasticizer/monomers; assay type: physicochemical; conditions: in ethyl methacrylate and lauryl methacrylate
Method: A novel solution involving the polymerization of the plasticizer that remains within the fiber (FIG. 8) has been developed. Thus, a plasticizer is chosen that also is a monomer. It was determined that Trifluralin is quite soluble in ethyl methacrylate and lauryl methacrylate. […] Thus, technical feasibility is evident up to this point in the process.

For `CCCN(CCC)c1c([N+](=O)[O-])cc(C(F)(F)F)cc1[N+](=O)[O-]` [Trifluralin], the “concentration highly effective in preventing root elongation” value (plant root; 95% of the plants tested, prior efforts) is given as 2–5 ppm, the “concentration required to inhibit root growth” value (plant root; a few of the plants tested, prior efforts) is given as 10 ppm and the “concentration sufficient to inhibit root growth” value (plant root; in gels and water-saturated soils adjacent to a pipe leakage area) is given as 5–10 ppm. For the same molecule, the solubility [1] was “quite soluble”.
